Assay results reported in patent US20070249988A1, “Electrotransport Delivery of Nesiritide” (ALZA CORPORATION, priority 2006, published 2007).

What was measured:
[1] = In vitro electrotransport of nesiritide across heat-separated human epidermis (ET cells, solution donor); type: in vitro ADME
Description: Nesiritide was screened in vitro for its electrotransport (ET) properties with heat-separated human epidermis/stratum corneum (skin).
In vitro electrotransport of nesiritide across heat-separated human epidermis/stratum corneum was conducted using anodic drive with ET cells in three separate sets of experiments, using human epidermis from three sources under the conditions set forth in the table below.
The pH of donor solutions was monitored before and after the experiments. The amount of passive transport was determined in fully assembled ET cells, incubated at 32° C. for 1 hour, with subsequent analysis of the receptor solution by RP-HPLC. […] The applied constant current was 100 μA/cm^2. The receptor solution was removed for analysis and replenished at 2 hour intervals during the first eight hours of testing, and then after 24 hours and 26 hours. The voltage drop across each cell was monitored at intervals throughout the experiment. Additionally, after the completion of transport studies, the solutions from some donor compartments were removed and analyzed either for evidence of peptide degradation or for pH changes.
When comparing data obtained using different conditions during ET Flux, it is thought to be more useful to compare the median values for each case (Holladay, L. A. 1995; personal communications). The use of the median as a figure of merit for ET flux data decreases the impact of both measurement and recovery problems for cells with low transport values. It also minimizes the impact of data from ECs with higher values, which may represent skin that was partially leaking. In order to compare the values of the median from different studies, it is necessary to have an estimate of the confidence interval for each median. If the values for the medians are different, but the confidence intervals overlap, then the results are not truly distinguished. For this work with nesiritide, a Bootstrap method (Diciccio, T. J., Romano, J. P. A Review of Bootstrap Confidence Intervals, J. R. Statist Soc B, 1988; 50 338-354; Efron, B., Tibshirani, R. Bootstrap Methods for Standard errors, Confidence Intervals, and Other Measures of Statistical Accuracy, Statistical Science, 1986; 1 54-77) was used to determine 95% and 67% confidence intervals for the data sets compared. The method estimates the intervals using considerable amounts of computation; 32,000 trials of the algorithm were used for these analyses.

[2] = Isocratic hydrophobic interaction chromatography (HIC); type: physicochemical
Description: Nesiritide was analyzed by isocratic hydrophobic interaction chromatography (HIC) using the conditions set forth in the table below to estimate the peptide's hydrophobicity.

[3] = Stability on exposure to human epidermis; type: in vitro ADME
Description: The peptide was incubated in various buffer systems, both with and without human epidermis, at concentrations to be used for donor solutions. Experiments were conducted at 32° C. for 8 hours and 24 hours. The solutions were separated into portions and analyzed by RP-HPLC using the conditions described in the table below, both directly and after dilution to give a concentration of nesiritide at ˜100 μg/mL. In some cases, donor solutions were also removed and analyzed following ET Flux experiments.

[4] = Sedimentation equilibrium analytical ultracentrifugation (XLA), self-association; type: physicochemical; design: M(1 − vbar * p) observed: unit not given beside the values; details: for Residual Pattern / M(1 − vbar * p) observed: 10 mM ionic; for M(1 − vbar * p) observed: 32° C., 44,000 rpm
Description: Nesiritide's tendency towards self-association was assessed using sedimentation equilibrium analytical ultracentrifugation (XLA). An increase in the concentration of peptide in the donor formulation usually is expected to produce an increase in the rate of transport. With many peptides, raising the peptide concentration in solution will also heighten any tendency toward self-association. The conditions of the donor formulation are selected to maximize delivery and minimize aggregation. The development of peptide aggregates in solution can be determined directly by analytical ultracentrifugation. The sensitivity of detection requires at least 5% of the peptide exist as an aggregate.
Solutions of nesiritide at pH 6 and 7, (10 mM ionic imidazole) and pH 8 (10 mM ionic serinamide) were analyzed by sedimentation equilibrium ultracentrifugation. Samples were centrifuged to equilibrium at 44,000 rpm at 32° C., overnight. Absorbance as a function of radial position was determined at 258 nm.
When a highly charged peptide, such as nesiritide at pH 7, is formulated in a low ionic strength buffer, it will behave in a nonideal manner. Under such conditions, the apparent buoyant molecular weight will be lowered because of charge-charge repulsion. Theory has not been developed to estimate the magnitude of this effect when the bulk of the solution ionic strength arises from the peptide and its counter ions (as opposed to the case where the buffer ions contribute the majority of the ionic strength). The calculated value for M(1−vbar*ρ), given in the table below, was based on the behavior expected under ideal conditions.

[5] = In use stability of hydrogel formulations under electrotransport conditions (HPLC); type: physicochemical; details: hydrogel formulation, over 24 hours, at 0.1 mA/cm^2 and 32° C.
Description: In vitro electrotransport flux experiments were conducted using either synthetic polymeric Nulepore membranes or heat separated human cadaver epidermis. Custom-built horizontal diffusion cells were used for all in vitro skin flux experiments. Silver and silver chloride electrodes were used to apply current across the cell. Nesiritide hydrogels were placed between the silver anode and human heat-separated epidermis. In addition, a PVOH hydrogel containing a polymeric chloride source was placed between the silver anode and the drug hydrogel. A 1/10 dilution of Dulbecco's phosphate buffered saline (0.015 M NaCl) served as the receptor solution, which was continuously pumped through the receptor compartment. At multiple time points, receptor samples for HPLC analysis were collected using a custom-built, automated Hanson Research Microette™ collection system.
The receptor samples were analyzed for nesiritide using a HPLC assay. In addition, as show in FIGS. 6B and 7B, formulations were also extracted for nesiritide and analyzed via a HPLC assay after use in a flux experiment.

[6] = 8 hour delivery, study a & c, fresh skin, combine 1 mM & 3 mM, 100 μA/cm^2
[7] = 8 hour delivery, study a & c, fresh skin, donor 1 mM, 100 μA/cm^2
[8] = 8 hour delivery, study b, frozen skin, donor 1 mM, 100 μA/cm^2
[9] = 8 hour delivery, study b, frozen skin, donor 3 mM, 100 μA/cm^2
[10] = 8 hour delivery, study c, fresh skin, donor 3 mM, 100 μA/cm^2
[11] = 3 mg/mL (~1 mM), pH 6 (imidazole)
[12] = 3 mg/mL (~1 mM), pH 7 (imidazole)
[13] = 3 mg/mL (~1 mM), pH 8 (serinamide)
[14] = 10 mg/mL (~3 mM), pH 7 (imidazole)

**Q.** With `CC[C@H](C)[C@@H]1NC(=O)[C@H](CCCNC(=N)N)NC(=O)[C@H](CC(=O)O)NC(=O)[C@H](CCSC)NC(=O)[C@H](CCCCN)NC(=O)[C@H](CCCNC(=N)N)NC(=O)CNC(=O)[C@H](Cc2ccccc2)NC(=O)[C@@H](NC(=O)CNC(=O)[C@H](CO)NC(=O)CNC(=O)[C@H](CCC(N)=O)NC(=O)[C@@H](NC(=O)[C@H](CCSC)NC(=O)[C@H](CCCCN)NC(=O)[C@@H]2CCCN2C(=O)[C@@H](N)CO)C(C)C)CSSC[C@@H](C(=O)N[C@@H](CCCCN)C(=O)N[C@H](C(=O)N[C@@H](CC(C)C)C(=O)N[C@@H](CCCNC(=N)N)C(=O)N[C@@H](CCCNC(=N)N)C(=O)N[C@@H](Cc2c[nH]cn2)C(=O)O)C(C)C)NC(=O)CNC(=O)[C@H](CC(C)C)NC(=O)CNC(=O)[C@H](CO)NC(=O)[C@H](CO)NC(=O)[C@H](CO)NC(=O)[C@H](CO)NC1=O` [Nesiritide, nesiritide] as the molecule, how does the “comprehensive median value for transport through human skin” value ([1]; 1 mM and 3 mM donor combined, 95% confidence interval of 1.2-2.1) read?
**A.** Its value is 1.6 μg cm^−2h^−1.

**Q.** And the Mean electrotransport flux ([1]; 1 mM and 3 mM, study a & c, sampling up to 8 h, fresh skin)?
**A.** Its Mean electrotransport flux is 4.7 μg cm^−2 h^−1.

**Q.** And the Mean electrotransport flux ([1]; 1 mM and 3 mM, study b, sampling 8 h–26 h, frozen skin)?
**A.** The Mean electrotransport flux was 1.5 μg cm^−2 h^−1.

**Q.** And the Mean electrotransport flux ([1]; 1 mM and 3 mM, study b, sampling up to 8 h, frozen skin)?
**A.** Its Mean electrotransport flux is 18.6 μg cm^−2 h^−1.

**Q.** And the Mean electrotransport flux ([1]; 1 mM and 3 mM, study c, sampling 8 h–26 h, fresh skin)?
**A.** Its Mean electrotransport flux is 1.3 μg cm^−2 h^−1.

**Q.** And the Mean electrotransport flux [1, 6]?
**A.** The Mean electrotransport flux was 4.7 μg cm^−2 h^−1.

**Q.** What about the Median electrotransport flux [1, 6] of the same molecule?
**A.** The Median electrotransport flux was 1.6 μg cm^−2 h^−1.

**Q.** What about the Mean electrotransport flux [1, 7] of the same molecule?
**A.** The Mean electrotransport flux was 3.0 μg cm^−2 h^−1.

**Q.** And the Median electrotransport flux [1, 7]?
**A.** The Median electrotransport flux was 1.6 μg cm^−2 h^−1.

**Q.** And the Mean electrotransport flux [1, 8]?
**A.** Its Mean electrotransport flux is 10.7 μg cm^−2 h^−1.

**Q.** What about the Median electrotransport flux [1, 8] of the same molecule?
**A.** The Median electrotransport flux was 6.3 μg cm^−2 h^−1.

**Q.** And the Mean electrotransport flux [1, 9]?
**A.** The Mean electrotransport flux was 24.9 μg cm^−2 h^−1.

**Q.** What about the Median electrotransport flux [1, 9] of the same molecule?
**A.** The Median electrotransport flux was 5.6 μg cm^−2 h^−1.

**Q.** And the Mean electrotransport flux [1, 10]?
**A.** The Mean electrotransport flux was 8.2 μg cm^−2 h^−1.

**Q.** And the Median electrotransport flux [1, 10]?
**A.** Its Median electrotransport flux is 2.0 μg cm^−2 h^−1.

**Q.** And the “transport with respect to time” value ([1]; by 24 hours (FIG. 2))?
**A.** Its value is “approaches zero transport”.

**Q.** And the “median values for transport, donor 1 mM versus 3 mM” value ([1]; comparison of donor 1 mM and 3 mM (FIG. 3))?
**A.** Its value is “not significantly different”.

**Q.** And the “Median Transport” value ([1]; fresh skin, Mid-time 0)?
**A.** Its value is 0 μg cm^−2 h^−1.

**Q.** What about the “Median Transport” value ([1]; fresh skin, Mid-time 0.6) of the same molecule?
**A.** Its value is 4.00 μg cm^−2 h^−1.

**Q.** What about the “Median Transport” value ([1]; fresh skin, Mid-time 2.2) of the same molecule?
**A.** The value was 2.01 μg cm^−2 h^−1.

**Q.** And the “Median Transport” value ([1]; fresh skin, Mid-time 4.2)?
**A.** Its value is 1.55 μg cm^−2 h^−1.

**Q.** What about the “Median Transport” value ([1]; fresh skin, Mid-time 6.2) of the same molecule?
**A.** The value was 1.06 μg cm^−2 h^−1.

**Q.** And the “Median Transport” value ([1]; fresh skin, Mid-time 16)?
**A.** Its value is 0.37 μg cm^−2 h^−1.

**Q.** And the “Median Transport” value ([1]; fresh skin, Mid-time 25)?
**A.** Its value is 0.80 μg cm^−2 h^−1.

**Q.** And the “free energy of adsorption to the HIC column, δΔ Gads” value ([2]; imidazole at pH 7, 10 mM ionic)?
**A.** The value was 0.46 k J mole^−1.

**Q.** And the “hydrophilicity by HIC” value ([2]; pH 7.0 imidazole 10 mM ionic, 32° C.)?
**A.** The value was “high measured hydrophilicity”.

**Q.** And the resistance to destruction ([3]; following exposure to human epidermis)?
**A.** The resistance to destruction was “quite resistant to destruction”.

**Q.** And the “stability with added human skin” value ([3]; pH 7, 24-hour, 32° C., with added human skin)?
**A.** Its value is “no destruction”.

**Q.** What about the “Residual Pattern” value [4, 11] of the same molecule?
**A.** The value was “nonideal”.

**Q.** And the “M(1 − vbar * p) observed” value [4, 11]?
**A.** Its value is 630.

**Q.** What about the “Residual Pattern” value [4, 12] of the same molecule?
**A.** The value was “flat”.

**Q.** What about the “M(1 − vbar * p) observed” value [4, 12] of the same molecule?
**A.** Its value is 644.

**Q.** What about the “Residual Pattern” value [4, 13] of the same molecule?
**A.** The value was “polydisperse”.

**Q.** What about the “M(1 − vbar * p) observed” value [4, 13] of the same molecule?
**A.** The value was 884.

**Q.** And the “Residual Pattern” value [4, 14]?
**A.** Its value is “nonideal”.

**Q.** What about the “M(1 − vbar * p) observed” value [4, 14] of the same molecule?
**A.** Its value is 703.

**Q.** And the self-association ([4]; all conditions tested, by ultracentrifugation)?
**A.** The self-association was “no indication of self-association”.

**Q.** What about the association state ([4]; highest concentration analyzed, 3 mM, 10 mg/mL at pH 7 in 10 mM ionic buffer) of the same molecule?
**A.** The association state was “remained monomeric”.

**Q.** What about the “in use stability under electrotransport conditions” value [5] of the same molecule?
**A.** Its value is “sufficient stability”.
